Source: ChEMBL document CHEMBL1158281, “Montiporic acids A and B, cytotoxic and antimicrobial polyacetylene carboxylic acids from eggs of the scleractinian coral Montipora digitata” (J Nat Prod, 1996)
Values after ≈ are worked out from the molar mass of the structure shown. Active and inactive are the calls of the source. The calls are words filed in the database; no cut-off is given here.

Experiments:
P388 = experiment: Cytotoxicity against mouse P388 cells; type: functional, cell-based
Escherichia coli = experiment: Antibacterial activity against Escherichia coli; type: functional, organism-based

Compound	IC50 (P388)	Activity (Escherichia coli)
C=CCCCCCCCC#CC#CCOCC(=O)O [MONOTIPORIC ACID B]	12 µg/mL (≈ 45.7 µM)	Active
CCCCCCCC#CC#CCOCC(=O)O [MONOTIPORIC ACID A]	5 µg/mL (≈ 21.2 µM)	Active
